Assay results: ChEMBL document CHEMBL1125906, “Three-dimensional structure-activity relationships and receptor mapping of N1-substituents of quinolone antibacterials” (1991)

What follows are compounds tested on Escherichia coli (assay: Biological activity against Escherichia coli N1HJ JC-2 relative to Norfloxacin.).
Format: functional
For `CN1CCN(c2cc3c(cc2F)c(=O)c(C(=O)O)cn3-c2ccc(F)cc2F)CC1`, the activity relative to norfloxacin was 4. `CN1CCN(c2cc3c(cc2F)c(=O)c(C(=O)O)cn3-c2ccc(Br)cc2)CC1` gave an activity relative to norfloxacin of 0.0312. For `O=C(O)c1c(=O)c2cc(F)c(N3CCNCC3)cc2n2ccsc12`, the activity relative to norfloxacin was 4. `C=CCn1cc(C(=O)O)c(=O)c2cc(F)c(N3CCNCC3)cc21` was tested, and the activity relative to norfloxacin was 0.25. Compound `O=C(O)c1cn(CCO)c2cc(N3CCNCC3)c(F)cc2c1=O` has an activity relative to norfloxacin of 0.25. In the case of `Cc1ccc(-n2cc(C(=O)O)c(=O)c3cc(F)c(N4CCN(C)CC4)cc32)cc1`, the activity relative to norfloxacin is reported as 0.25. Work on `Cn1cc(C(=O)O)c(=O)c2cc(F)c(N3CCNCC3)cc21` yielded an activity relative to norfloxacin of 0.25. With `O=C(O)c1cn(CCF)c2cc(N3CCNCC3)c(F)cc2c1=O` the activity relative to norfloxacin was 4. Work on `CN1CCN(c2cc3c(cc2F)c(=O)c(C(=O)O)c2n3CCS2)CC1` yielded an activity relative to norfloxacin of 4. `CN1CCN(c2cc3c(cc2F)c(=O)c(C(=O)O)cn3-c2ccc3c(c2)OCO3)CC1` was tested, and the activity relative to norfloxacin was 0.25. In the case of `CN1CCN(c2cc3c(cc2F)c(=O)c(C(=O)O)cn3-c2ccccc2)CC1`, the activity relative to norfloxacin is reported as 0.25. In the case of `CN1CCN(c2cc3c(cc2F)c(=O)c(C(=O)O)cn3-c2ccccc2F)CC1`, the activity relative to norfloxacin is reported as 0.25. Work on `CCCn1cc(C(=O)O)c(=O)c2cc(F)c(N3CCNCC3)cc21` yielded an activity relative to norfloxacin of 0.25. `CN1CCN(c2cc3c(cc2F)c(=O)c(C(=O)O)cn3-c2cccc(F)c2)CC1` was tested, and the activity relative to norfloxacin was 0.0312. For `O=C(O)c1cn(Cc2ccccc2)c2cc(N3CCNCC3)c(F)cc2c1=O`, the activity relative to norfloxacin was 0.25. `C=Cn1cc(C(=O)O)c(=O)c2cc(F)c(N3CCNCC3)cc21` showed an activity relative to norfloxacin of 4. `Cc1csc2c(C(=O)O)c(=O)c3cc(F)c(N4CCNCC4)cc3n12` was tested, and the activity relative to norfloxacin was 4. In the case of `CN1CCN(c2cc3c(cc2F)c(=O)c(C(=O)O)cn3-c2ccc(Cl)cc2)CC1`, the activity relative to norfloxacin is reported as 0.25. Compound `COc1ccc(-n2cc(C(=O)O)c(=O)c3cc(F)c(N4CCN(C)CC4)cc32)cc1` has an activity relative to norfloxacin of 0.004. `Cc1ccccc1-n1cc(C(=O)O)c(=O)c2cc(F)c(N3CCN(C)CC3)cc21` showed an activity relative to norfloxacin of 0.25. Compound `CN(C)CCn1cc(C(=O)O)c(=O)c2cc(F)c(N3CCNCC3)cc21` has an activity relative to norfloxacin of 0.0312. With `CN1CCN(c2cc3c(cc2F)c(=O)c(C(=O)O)cn3-c2ccc(O)cc2)CC1` the activity relative to norfloxacin was 4. Compound `Cc1cccc(C)c1-n1cc(C(=O)O)c(=O)c2cc(F)c(N3CCN(C)CC3)cc21` has an activity relative to norfloxacin of under 0.004. With `CNn1cc(C(=O)O)c(=O)c2cc(F)c(N3CCN(C)CC3)cc21` [AMIFLOXACIN] the activity relative to norfloxacin was 4. In the case of `O=C(O)c1cn(C2CC2)c2cc(N3CCNCC3)c(F)cc2c1=O` [CIPROFLOXACIN], the activity relative to norfloxacin is reported as 4. `C[C@@H]1COc2c(N3CCN(C)CC3)c(F)cc3c(=O)c(C(=O)O)cn1c23` [DEXTROFLOXACINE] gave an activity relative to norfloxacin of 0.25. `CN1CCN(c2cc3c(cc2F)c(=O)c(C(=O)O)cn3-c2ccc(F)cc2)CC1` [DIFLOXACIN] showed an activity relative to norfloxacin of 4. For `C[C@H]1COc2c(N3CCN(C)CC3)c(F)cc3c(=O)c(C(=O)O)cn1c23.C[C@H]1COc2c(N3CCN(C)CC3)c(F)cc3c(=O)c(C(=O)O)cn1c23.O` [LEVOFLOXACIN], the activity relative to norfloxacin was 4. With `CCn1cc(C(=O)O)c(=O)c2cc(F)c(N3CCNCC3)cc21` [NORFLOXACIN] the activity relative to norfloxacin was 4.
